Reference: US20230174460A1, “AFMT ANALOGS AND THEIR USE IN METHODS OF TREATING PARKINSON'S DISEASE” (President and Fellowes of Harvard College, priority 2020, published 2023)

Test system: E. faecalis MMH594 whole cells (TyrDC)
Test: Inhibition of L-dopa decarboxylation in E. faecalis whole cells
Format: cell-based, Enterococcus faecalis MMH594
Details: for EC50: E. faecalis whole cells / cultures
Description: Thus, a library of commercially available tyrosine and phenylalanine derivatives were evaluated for decarboxylation by Enterococcus faecalis MMH594 whole cells; decarboxylation efficiency of a given tyrosine analog was used to identify favorable aromatic fragments, with high conversion indicating a favorable arene scaffold. […] To quickly assess whether the trend in native decarboxylation activity can be translated to inhibitory activity, we evaluated benzyl aminooxy compounds with similar aromatic elements as inhibitors for L-dopa decarboxylation in E. faecalis MMH594 whole cells (10 μM inhibitor); high L-dopa recovery indicated high inhibitory efficiency. […] In addition, these compounds are either commercially available or can be accessed in a two-step synthetic sequence (European Journal of Medicinal Chemistry 2016, 108, 564-576). As shown, inhibitors without a para-hydroxyphenyl motif are not effective towards L-dopa decarboxylation in whole cells (FIG. 3B). Aminooxy compounds with this structural motif can inhibit L-dopa decarboxylation in E. faecalis cultures at low concentrations.
AFMT analogs were evaluated for their inhibitory effects towards L-dopa decarboxylation using the same protocol as described above. 500 μM L-dopa was incubated anaerobically at 37° C. with E. faecalis MMH594 in the presence of 100 μM inhibitor for 18-24 h. The level of remaining L-dopa was measured by MS/MS and then normalized to the level of L-dopa from a mutant control. […] Since (S)-AFMT is the active AFMT enantiomer, the stereochemical assignments in FIG. 5 assume that the enantiomer with the higher inhibitory activity carries the […] configuration. Chiral configuration will be unambiguously determined via crystallography in the future.

| EC50 [nM] | Structure (SMILES) | further results |
| --- | --- | --- |
| 2200 | NOCc1ccc(O)c(F)c1 [3-fluoro-4-hydroxybenzyl aminooxy] |  |
| 1500 | NOCc1ccc(O)cc1 [4-hydroxybenzyl aminooxy] |  |
|  | N[C@@](CF)(Cc1ccc(O)cc1)C(=O)O [AFMT, α-fluoromethyltyrosine] | EC50 (Enterococcus faecalis): 1400 nM |
|  | C[C@@](Cc1ccc(O)c(O)c1)(NN)C(=O)O [carbidopa] | limiting L-dopa decarboxylation by E. faecalis (applicant's original study): ineffective |
